# Assay results taken from patent US10168342B2, “Lipid probes and uses thereof” (THE SCRIPPS RESEARCH INSTITUTE, priority 2015, dated 2019).
# Read-outs that look alike come from different tables or passages of the source.
# Columns and labels:
# [1] = target: T1, AEA-DA lipid probe targets in Neuro2a cells (Mus musculus, UniProt Q8C7K6)
# T1 sequence (Q8C7K6 23-495): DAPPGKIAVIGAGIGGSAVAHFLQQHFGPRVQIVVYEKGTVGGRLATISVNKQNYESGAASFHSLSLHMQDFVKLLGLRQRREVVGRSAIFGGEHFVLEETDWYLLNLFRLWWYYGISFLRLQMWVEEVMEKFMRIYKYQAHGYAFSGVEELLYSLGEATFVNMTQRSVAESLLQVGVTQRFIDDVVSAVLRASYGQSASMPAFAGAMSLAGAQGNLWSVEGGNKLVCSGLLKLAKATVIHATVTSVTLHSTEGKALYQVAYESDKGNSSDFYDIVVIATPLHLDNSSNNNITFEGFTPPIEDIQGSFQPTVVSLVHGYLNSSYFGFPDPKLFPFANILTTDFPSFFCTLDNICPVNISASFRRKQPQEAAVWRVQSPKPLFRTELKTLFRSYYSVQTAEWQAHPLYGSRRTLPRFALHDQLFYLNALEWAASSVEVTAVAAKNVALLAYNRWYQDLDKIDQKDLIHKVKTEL
# [2] = target: T2, AEA-DA lipid probe targets in Neuro2a cells (Mus musculus, UniProt Q91XD7)
# T2 sequence (Q91XD7 30-420): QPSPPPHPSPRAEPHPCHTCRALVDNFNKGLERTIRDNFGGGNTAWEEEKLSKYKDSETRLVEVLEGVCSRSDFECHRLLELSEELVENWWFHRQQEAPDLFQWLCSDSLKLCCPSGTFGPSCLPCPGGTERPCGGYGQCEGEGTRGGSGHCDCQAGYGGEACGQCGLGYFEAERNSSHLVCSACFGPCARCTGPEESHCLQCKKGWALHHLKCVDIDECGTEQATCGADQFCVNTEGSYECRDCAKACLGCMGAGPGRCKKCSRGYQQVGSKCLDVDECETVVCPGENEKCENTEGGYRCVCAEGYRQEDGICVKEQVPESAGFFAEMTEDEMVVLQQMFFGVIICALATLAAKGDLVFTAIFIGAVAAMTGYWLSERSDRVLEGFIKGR
# [3] = target: T3, AEA-DA lipid probe targets in Neuro2a cells (Mus musculus, UniProt Q8BMG8)
# T3 sequence (Q8BMG8 1-316): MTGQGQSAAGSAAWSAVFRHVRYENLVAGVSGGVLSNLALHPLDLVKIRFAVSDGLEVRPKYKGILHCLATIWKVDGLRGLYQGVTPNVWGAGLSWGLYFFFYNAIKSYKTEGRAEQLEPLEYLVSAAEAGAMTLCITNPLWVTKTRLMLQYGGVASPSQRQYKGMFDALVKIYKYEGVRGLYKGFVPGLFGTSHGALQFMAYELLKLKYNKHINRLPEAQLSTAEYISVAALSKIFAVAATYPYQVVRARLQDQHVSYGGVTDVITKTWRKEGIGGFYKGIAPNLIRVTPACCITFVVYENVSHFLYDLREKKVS
# [4] = target: T4, AEA-DA lipid probe targets in Neuro2a cells (Mus musculus, UniProt Q9CZS1)
# T4 sequence (Q9CZS1 20-519): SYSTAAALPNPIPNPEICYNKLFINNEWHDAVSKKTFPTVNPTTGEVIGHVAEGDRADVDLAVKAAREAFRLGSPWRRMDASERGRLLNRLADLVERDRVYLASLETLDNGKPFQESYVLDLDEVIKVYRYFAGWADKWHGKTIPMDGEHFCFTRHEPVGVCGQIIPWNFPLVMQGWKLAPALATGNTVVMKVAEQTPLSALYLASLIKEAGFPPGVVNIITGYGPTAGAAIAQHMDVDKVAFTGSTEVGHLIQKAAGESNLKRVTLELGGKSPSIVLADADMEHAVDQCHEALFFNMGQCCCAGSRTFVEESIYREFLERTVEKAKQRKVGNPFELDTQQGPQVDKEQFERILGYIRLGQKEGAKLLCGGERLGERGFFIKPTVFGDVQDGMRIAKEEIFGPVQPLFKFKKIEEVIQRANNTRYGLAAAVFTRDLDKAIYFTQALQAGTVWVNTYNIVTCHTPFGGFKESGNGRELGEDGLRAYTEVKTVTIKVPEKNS
# [5] = target: T5, AEA-DA lipid probe targets in Neuro2a cells (Mus musculus, UniProt Q8BXN9)
# T5 sequence (Q8BXN9 22-555): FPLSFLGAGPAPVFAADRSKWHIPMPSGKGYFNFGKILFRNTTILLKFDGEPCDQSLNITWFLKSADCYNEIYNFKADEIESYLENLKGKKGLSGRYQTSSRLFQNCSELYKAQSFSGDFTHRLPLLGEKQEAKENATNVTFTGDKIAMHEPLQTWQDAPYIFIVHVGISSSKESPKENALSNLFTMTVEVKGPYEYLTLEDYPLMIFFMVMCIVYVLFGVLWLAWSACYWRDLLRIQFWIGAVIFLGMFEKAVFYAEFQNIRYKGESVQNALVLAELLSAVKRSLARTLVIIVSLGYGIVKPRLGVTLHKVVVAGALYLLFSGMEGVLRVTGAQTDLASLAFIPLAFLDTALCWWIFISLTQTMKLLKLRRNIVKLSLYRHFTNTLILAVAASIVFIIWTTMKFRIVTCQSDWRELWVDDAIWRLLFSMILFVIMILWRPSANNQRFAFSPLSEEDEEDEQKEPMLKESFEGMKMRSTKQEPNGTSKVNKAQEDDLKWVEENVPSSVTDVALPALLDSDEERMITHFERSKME
# [6] = target: AEA-DA lipid probe targets in Neuro2a cells (Mus musculus, UniProt O88696)
# AEA-DA lipid probe targets in Neuro2a cells (Mus musculus, UniProt O88696), sequence (O88696 53-272): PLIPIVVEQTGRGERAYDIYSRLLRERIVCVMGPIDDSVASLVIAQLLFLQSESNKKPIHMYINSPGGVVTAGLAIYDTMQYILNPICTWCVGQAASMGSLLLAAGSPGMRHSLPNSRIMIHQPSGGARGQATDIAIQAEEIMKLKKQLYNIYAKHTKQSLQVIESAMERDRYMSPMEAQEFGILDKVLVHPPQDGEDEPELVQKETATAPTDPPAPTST
# [7] = target: AEA-DA lipid probe targets in Neuro2a cells (Mus musculus, UniProt P18242)
# AEA-DA lipid probe targets in Neuro2a cells (Mus musculus, UniProt P18242), sequence (P18242 65-410): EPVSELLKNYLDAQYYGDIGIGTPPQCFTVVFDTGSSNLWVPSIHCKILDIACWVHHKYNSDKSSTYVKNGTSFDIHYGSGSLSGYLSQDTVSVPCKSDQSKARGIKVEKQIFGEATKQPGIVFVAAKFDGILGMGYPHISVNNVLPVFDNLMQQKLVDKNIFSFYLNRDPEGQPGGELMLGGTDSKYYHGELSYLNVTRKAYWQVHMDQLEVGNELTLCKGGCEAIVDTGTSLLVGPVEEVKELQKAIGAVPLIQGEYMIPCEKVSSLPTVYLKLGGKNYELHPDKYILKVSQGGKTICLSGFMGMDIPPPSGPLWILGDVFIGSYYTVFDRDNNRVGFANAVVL
# [8] = target: T6, AEA-DA lipid probe targets in Neuro2a cells (Mus musculus, UniProt Q3KNM2); conditions: for SILAC ratio, MARCH5 (Q3KNM2): Neuro2a cells, AEA-DA probe
# T6 sequence (Q3KNM2 1-278): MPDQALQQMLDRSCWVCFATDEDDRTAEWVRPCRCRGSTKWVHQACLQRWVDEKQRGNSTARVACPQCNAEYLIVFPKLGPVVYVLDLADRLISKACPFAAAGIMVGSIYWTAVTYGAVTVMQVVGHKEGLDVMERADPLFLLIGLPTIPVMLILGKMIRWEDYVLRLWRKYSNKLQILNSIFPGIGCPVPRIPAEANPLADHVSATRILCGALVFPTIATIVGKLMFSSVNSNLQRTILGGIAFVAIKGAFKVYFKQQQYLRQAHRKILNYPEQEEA
smiles,measurement,setting,value
"CCCCC/C=C\C/C=C\C/C=C\C/C=C\CCCC(=O)NCCO [AEA, anandamide, reference compound]",SILAC ratio Pcyox11,[1]; competitor 200 μM,1.5
same,"SILAC ratio, Creld1",[2]; competitor 200 μM,1.8
same,"SILAC ratio, Slc25a32",[3]; competitor 200 μM,1.5
same,"SILAC ratio, Aldh1b1",[4]; competitor 200 μM,2.7
same,"SILAC ratio, Tmem87a",[5]; competitor 200 μM,1.8
same,SILAC ratio Clpp,[6]; competitor 200 μM,1.4
same,"SILAC ratio, Ctsd",[7]; competitor 200 μM,1.2
"O=C(/C=C/c1cccnc1)NCCCCC1CCN(C(=O)c2ccccc2)CC1 [FK-866, reference compound]",SILAC ratio Pcyox11,[1]; competitor 25 μM,1.3
same,"SILAC ratio, Creld1",[2]; competitor 25 μM,1.3
same,"SILAC ratio, MARCH5 (Q3KNM2)",[8]; competitor 25 μM,1.3
same,"SILAC ratio, March5",[8]; competitor 25 μM,1.3
same,"SILAC ratio, Slc25a32",[3]; competitor 25 μM,1.1
same,"SILAC ratio, Aldh1b1",[4]; competitor 25 μM,1.3
same,"SILAC ratio, Tmem87a",[5]; competitor 25 μM,1.1
same,SILAC ratio Clpp,[6]; competitor 25 μM,1.0
same,"SILAC ratio, Ctsd",[7]; competitor 25 μM,1.0
"CN1CCN(C(=O)c2c(-c3ccccc3)c3cc([N+](=O)[O-])ccc3n2C)CC1 [KML110, (1-Methyl-5-nitro-3-phenyl-1H-indol-2-yl)(4-methylpiperazin-1-yl)methanone]",SILAC ratio Pcyox11,[1]; competitor 25 μM,2.0
same,"SILAC ratio, Creld1",[2]; competitor 25 μM,1.8
same,"SILAC ratio, March5",[8]; competitor 25 μM,1.5
same,"SILAC ratio, Slc25a32",[3]; competitor 25 μM,1.5
same,"SILAC ratio, Aldh1b1",[4]; competitor 25 μM,1.7
same,"SILAC ratio, Tmem87a",[5]; competitor 25 μM,1.8
same,SILAC ratio Clpp,[6]; competitor 25 μM,2.4
same,"SILAC ratio, Ctsd",[7]; competitor 25 μM,1.4
"CN1CCN(C(=O)c2[nH]c3ccc([N+](=O)[O-])cc3c2-c2ccccc2)CC1 [MJN228, (4-Methylpiperazin-1-yl)(5-nitro-3-phenyl-1H-indol-2-yl)methanone]",SILAC ratio Pcyox11,[1]; competitor 10 μM,1.2
same,SILAC ratio Pcyox11,[1]; competitor 25 μM,1.8
same,SILAC ratio Pcyox11,[1]; competitor 50 μM,1.7
same,SILAC ratio Pcyox11,[1]; competitor 100 μM,2.5
same,"SILAC ratio, Creld1",[2]; competitor 10 μM,1.4
same,"SILAC ratio, Creld1",[2]; competitor 25 μM,1.8
same,"SILAC ratio, Creld1",[2]; competitor 50 μM,2.4
same,"SILAC ratio, Creld1",[2]; competitor 100 μM,4.2
same,"SILAC ratio, MARCH5 (Q3KNM2)",[8]; competitor 25 μM,1.1
same,"SILAC ratio, March5",[8]; competitor 10 μM,1.1
same,"SILAC ratio, March5",[8]; competitor 25 μM,1.1
same,"SILAC ratio, March5",[8]; competitor 50 μM,1.0
same,"SILAC ratio, March5",[8]; competitor 100 μM,1.1
same,"SILAC ratio, Slc25a32",[3]; competitor 10 μM,1.5
same,"SILAC ratio, Slc25a32",[3]; competitor 25 μM,1.5
same,"SILAC ratio, Slc25a32",[3]; competitor 50 μM,1.5
same,"SILAC ratio, Slc25a32",[3]; competitor 100 μM,1.9
same,"SILAC ratio, Aldh1b1",[4]; competitor 10 μM,1.2
same,"SILAC ratio, Aldh1b1",[4]; competitor 25 μM,1.6
same,"SILAC ratio, Aldh1b1",[4]; competitor 50 μM,2.0
same,"SILAC ratio, Aldh1b1",[4]; competitor 100 μM,2.6
same,"SILAC ratio, Tmem87a",[5]; competitor 10 μM,1.3
same,"SILAC ratio, Tmem87a",[5]; competitor 25 μM,1.9
same,"SILAC ratio, Tmem87a",[5]; competitor 50 μM,1.6
same,"SILAC ratio, Tmem87a",[5]; competitor 100 μM,2.7
same,SILAC ratio Clpp,[6]; competitor 10 μM,1.4
same,SILAC ratio Clpp,[6]; competitor 25 μM,2.1
same,SILAC ratio Clpp,[6]; competitor 50 μM,3.6
same,SILAC ratio Clpp,[6]; competitor 100 μM,9.0
same,"SILAC ratio, Ctsd",[7]; competitor 10 μM,1.2
same,"SILAC ratio, Ctsd",[7]; competitor 25 μM,1.2
same,"SILAC ratio, Ctsd",[7]; competitor 50 μM,1.2
same,"SILAC ratio, Ctsd",[7]; competitor 100 μM,1.1
"C=CCN(C)CCCCCCOc1ccc(C(=O)c2ccc(Br)cc2)c(F)c1 [Ro 48-8071, reference compound]",SILAC ratio Pcyox11,[1]; competitor 25 μM,1.0
same,"SILAC ratio, Creld1",[2]; competitor 25 μM,1.4
same,"SILAC ratio, MARCH5 (Q3KNM2)",[8]; competitor 25 μM,1.1
same,"SILAC ratio, March5",[8]; competitor 25 μM,1.1
same,"SILAC ratio, Slc25a32",[3]; competitor 25 μM,1.1
same,"SILAC ratio, Aldh1b1",[4]; competitor 25 μM,1.6
same,"SILAC ratio, Tmem87a",[5]; competitor 25 μM,2.3
same,SILAC ratio Clpp,[6]; competitor 25 μM,0.9
same,"SILAC ratio, Ctsd",[7]; competitor 25 μM,0.5
